According to patent US7842324B2 (Senomyx, Inc., priority 2005, dated 2010):
Where two headings read alike, the source gives them in different places. Values belong to the molecule of their own block, whether it stands above or below them.

How the values were obtained:
[1] = test system: Human Panelists; experiment: Line Scale sensory testing human taste test (Table C); format: in vivo; conditions: low sodium buffer pH 7.1
Text: Purpose: To create a dose-response curve for perceived sweetness intensity of fructose-glucose concentrations. Test samples containing experimental compound are compared to this dose-response curve to determine equivalent sweetness intensity. This type of study requires a number of evaluations in order to obtain statistically significant data, so the test may be repeated with the same or additional panelists.
Overview: A group of eight or more panelists taste solutions including fructose-glucose at various concentrations, as well as the experimental compound, both with and without added fructose-glucose. Panelists rate sweetness intensity of all samples on an unstructured horizontal line scale, anchored from 0 to 10, where 0 equals no sweetness and 10 equals intense sweetness. Scores for sweetness intensity are averaged across panelists. Then using the average scores and/or equation of the line for the fructose-glucose dose-response curve, equivalent sweetness fructose-glucose concentrations are determined for the samples containing experimental compound.
Procedure: Eight or more subjects are used for the Line Scale tests. Subjects have been previously familiarized with the key attribute taste and are trained to use the 0 to 10 unstructured line scale. Subjects refrain from eating or drinking (except water) for at least 1 hour prior to the test. Subjects eat a cracker and rinse with water several times to clean the mouth.
Fructose-glucose solutions are provided at a wide range of concentrations, such as 0%, 2%, 4%, 6%, 8%, and 10% fructose-glucose, in order to create the dose-response curve. Samples containing experimental compound are prepared both alone and in a 6% fructose-glucose solution. All samples are made up in low sodium buffer pH 7.1. In order to aid dispersion, solutions can also be made up in 0.1% ethanol.
The solutions are dispensed in 20 ml volumes into 1 oz. sample cups and served to the subjects at room temperature. All samples are presented in randomized counterbalanced order to reduce response bias. Further, two sessions of testing may be used to check panel precision.
Subjects taste each sample individually and rate sweetness intensity on the line scale prior to tasting the next sample. All samples are expectorated. Subjects may retaste the samples but can only use the volume of sample given. Subjects must rinse with water between samples. Eating an unsalted cracker between sample pairs may be required depending on the samples tasted.
The scores for each sample are averaged across subjects and standard error is calculated. The dose-response curve is plotted graphically, and this may be used to ensure the panel is rating accurately; i.e. increasing the concentration of fructose-glucose should correspond to increased average scores for sweetness. A 2-way ANOVA (factors being samples and panelists) and multiple comparison tests (such as Tukey's Honestly Significant Difference test) can be used to determine differences among samples and/or panelists. A 3-way ANOVA, with sessions as the third factor, can be used to determine if there is any difference in the ratings between sessions.

[2] = biological target: T1, hT1R2/hT1R3 sweet receptor expressed in HEK293 cell line (Homo sapiens, UniProt Q7RTX0+Q8TE23); experiment: In vitro hT1R2/hT1R3-HEK293 taste receptor activation assay (FLIPR); format: cell-based
T1 construct: expressed in transfected cells; host or cells: HEK293 derivative stably expressing Gα15 and hT1R2/hT1R3, clone S-9
T1 sequence (Q8TE23 20-839): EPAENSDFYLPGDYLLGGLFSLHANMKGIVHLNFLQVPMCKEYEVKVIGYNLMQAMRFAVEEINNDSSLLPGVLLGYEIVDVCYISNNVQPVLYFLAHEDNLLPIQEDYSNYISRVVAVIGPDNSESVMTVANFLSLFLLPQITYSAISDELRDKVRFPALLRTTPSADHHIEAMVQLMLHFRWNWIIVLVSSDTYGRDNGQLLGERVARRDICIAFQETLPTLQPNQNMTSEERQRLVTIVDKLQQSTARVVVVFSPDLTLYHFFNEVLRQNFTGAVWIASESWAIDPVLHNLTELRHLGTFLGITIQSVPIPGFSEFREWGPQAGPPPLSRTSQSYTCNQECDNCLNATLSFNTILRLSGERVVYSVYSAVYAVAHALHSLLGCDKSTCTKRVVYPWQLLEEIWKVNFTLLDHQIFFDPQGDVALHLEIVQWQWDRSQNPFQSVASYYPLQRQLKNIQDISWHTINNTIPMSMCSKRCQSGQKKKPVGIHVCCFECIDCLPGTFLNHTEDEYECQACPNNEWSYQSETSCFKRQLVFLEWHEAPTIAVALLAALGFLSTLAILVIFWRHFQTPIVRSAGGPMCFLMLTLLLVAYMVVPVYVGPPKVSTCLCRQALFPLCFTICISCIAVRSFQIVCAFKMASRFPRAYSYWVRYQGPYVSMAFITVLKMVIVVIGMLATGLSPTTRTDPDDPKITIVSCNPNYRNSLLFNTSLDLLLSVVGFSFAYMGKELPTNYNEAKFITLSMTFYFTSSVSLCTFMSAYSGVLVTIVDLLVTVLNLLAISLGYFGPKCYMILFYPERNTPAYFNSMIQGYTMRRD
T1 sequence (Q7RTX0 21-852): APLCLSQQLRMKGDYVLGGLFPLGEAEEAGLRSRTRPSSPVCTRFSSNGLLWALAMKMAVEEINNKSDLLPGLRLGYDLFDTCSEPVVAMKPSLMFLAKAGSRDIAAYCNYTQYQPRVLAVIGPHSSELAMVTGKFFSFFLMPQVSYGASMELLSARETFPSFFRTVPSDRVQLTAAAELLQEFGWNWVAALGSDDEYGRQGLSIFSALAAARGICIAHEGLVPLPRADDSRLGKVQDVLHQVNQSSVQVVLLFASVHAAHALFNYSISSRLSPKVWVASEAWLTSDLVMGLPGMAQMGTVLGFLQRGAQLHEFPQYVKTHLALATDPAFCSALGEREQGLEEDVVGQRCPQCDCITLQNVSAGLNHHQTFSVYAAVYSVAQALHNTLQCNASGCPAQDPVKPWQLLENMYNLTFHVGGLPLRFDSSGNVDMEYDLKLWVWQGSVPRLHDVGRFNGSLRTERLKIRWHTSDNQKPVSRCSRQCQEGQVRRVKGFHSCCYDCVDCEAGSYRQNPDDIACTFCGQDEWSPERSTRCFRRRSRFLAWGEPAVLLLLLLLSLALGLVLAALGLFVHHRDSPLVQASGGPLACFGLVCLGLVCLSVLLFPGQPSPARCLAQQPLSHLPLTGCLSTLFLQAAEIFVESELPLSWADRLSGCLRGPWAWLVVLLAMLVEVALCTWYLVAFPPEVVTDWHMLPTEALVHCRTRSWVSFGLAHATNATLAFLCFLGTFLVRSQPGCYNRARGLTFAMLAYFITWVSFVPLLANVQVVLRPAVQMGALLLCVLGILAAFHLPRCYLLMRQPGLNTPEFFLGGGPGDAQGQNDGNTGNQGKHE
Outline: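 HEK293 cells stably expressing Gα15 and hT1R2/hT1R3 were loaded with Fluo-3AM (4 μM, 1 h, room temperature), then stimulated at room temperature in D-PBS. Peak fluorescence (ex 480/em 535 nm) was normalized to basal. Dose-responses were run in duplicate over 60 nM–30 μM, normalized to 400 mM D-fructose, and EC50 fitted by free-Hill non-linear regression.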

[3] = 10 μM compound + 6% fructose/glucose
[4] = read-out: EC50 for activation of a hT1R2/hT1R3 sweet receptor expressed in HEK293 cell line
[5] = 5 μM compound + 6% fructose/glucose

- EC50 [2, 4]: 910 nM
SMILES: COCc1cncc(-c2ccc(C(C)(C)C(=O)NCC(C)C)cc2)c1 [Compound 32, N-isobutyl-2-(4-(5-(methoxymethyl)pyridin-3-yl)phenyl)-2-methylpropanamide]
- Perceived Equivalent Sweet Solution [1, 3]: Equal to 8% fructose/ % fructose/glucose

- EC50 [2, 4]: 230 nM
SMILES: CCC(C)CNC(=O)C(C)(C)c1ccc(-c2cncnc2)cc1 (stereo not shown) [Compound 25, 2-methyl-N-(2-methylbutyl)-2-(4-(pyrimidin-5-yl)phenyl)propanamide]
- Perceived Equivalent Sweet Solution [1, 3]: Equal to 10% fructose/ % fructose/glucose

- EC50 [2, 4]: 20 nM
SMILES: CC(C)CNC(=O)C(C)(C)c1ccc(-c2cncc(C#N)n2)cc1 [Compound 20, 2-(4-(6-cyanopyrazin-2-yl)phenyl)-N-isobutyl-2-methylpropanamide]
- Perceived Equivalent Sweet Solution [1, 3]: Equal to 10% fructose/ % fructose/glucose
- Perceived Equivalent Sweet Solution ([1]; 10 μM compound alone): Equal to 6% fructose/ % fructose/glucose

- EC50 [2, 4]: 260 nM
SMILES: COCc1cccc(-c2ccc(C(C)(C)C(=O)NCC(C)C)cc2OC)c1 [Compound 27, N-isobutyl-2-(2-methoxy-3′-(methoxymethyl)biphenyl-4-yl)-2-methylpropanamide]
- Perceived Equivalent Sweet Solution [1, 5]: Equal to 8% fructose/ % fructose/glucose

- melting point: 73 to 75 °C
- EC50 [2, 4]: 1870 nM
SMILES: CC[C@@H](CO)NC(=O)C(C)(C)c1ccc(-c2cccc(COC)c2)cc1 [Compound 39, (S)-N-(1-hydroxybutan-2-yl)-2-(3′-(methoxymethyl)biphenyl-4-yl)-2-methylpropanamide]
- Perceived Equivalent Sweet Solution ([1]; 15 μM compound + 6% fructose/glucose): Equal to 8% fructose/ % fructose/glucose

- melting point: 59 to 60 °C
- EC50 [2, 4]: 960 nM
SMILES: CC(C)CNC(=O)C(C)(C)c1ccc(-c2cccn2C)cc1 [Compound 34, N-isobutyl-2-methyl-2-(4-(1-methyl-1H-pyrrol-2-yl)phenyl)propanamide]
- Perceived Equivalent Sweet Solution [1, 5]: Equal to 8% fructose/ % fructose/glucose

- EC50 [2, 4]: 610 nM
SMILES: COCc1cccc(-c2ccc(C(C)(C)C(=O)NCC(C)C)cc2)c1 [Compound 30, N-isobutyl-2-(3′-(methoxymethyl)biphenyl-4-yl)-2-methylpropanamide]
- Perceived Equivalent Sweet Solution [1, 5]: Equal to 10% fructose/ % fructose/glucose

- EC50 [2, 4]: 1010 nM
SMILES: CC(C)CNC(=O)C(C)(C)c1ccc(-c2cncnc2)cc1 [Compound 43, N-isobutyl-2-methyl-2-(4-(pyrimidin-5-yl)phenyl)propanamide]
- Perceived Equivalent Sweet Solution [1, 3]: Equal to 8% fructose/ % fructose/glucose

- EC50 [2, 4]: 470 nM
SMILES: CC(C)(C(=O)NCc1ccco1)c1ccc(-c2cncc(C#N)n2)cc1 [Compound 49, 2-(4-(6-cyanopyrazin-2-yl)phenyl)-N-(furan-2-ylmethyl)-2-methylpropanamide]

- EC50 ([2]; Table A, read-out: SWEET EC50): 30 nM
SMILES: CC[C@H](C)CNC(=O)C(C)(C)c1ccc(-c2cncc(C#N)n2)cc1 [Compound A82]

- EC50 [2, 4]: 2190 nM
SMILES: CC(C)CNC(=O)C(C)(C)c1ccc(-c2cncc(C#N)c2)nc1 [Compound 40, 2-(5′-cyano-2,3′-bipyridin-5-yl)-N-isobutyl-2-methylpropanamide]

- EC50 [2, 4]: 260 nM
SMILES: CCOCc1cncc(-c2ccc(C(C)(C)C(=O)NCC(C)C)cc2)c1 [Compound 26, 2-(4-(5-(ethoxymethyl)pyridin-3-yl)phenyl)-N-isobutyl-2-methylpropanamide]

- EC50 ([2]; Table A, read-out: SWEET EC50): 370 nM
SMILES: COc1ccc([C@@H](C)NC(=O)C(C)(C)c2ccc(-c3cncnc3)cc2)cc1 [Compound A88]

- EC50 ([2]; Table A, read-out: SWEET EC50): 100 nM
SMILES: CC(NC(=O)C(C)(C)c1ccc(-c2cncc(C#N)n2)cc1)c1ccco1 (stereo not shown) [Compound A42]
